PubChem BioAssay AID330 (DTP/NCI, 2004)
Several values for one entry are separate records, joined by “and”; a condition that tells them apart may be missing. Equal values may be shown once. Inconclusive results and toxic doses are left out.

System: P388 leukemia ip, CD2F1 mice, survival T/C
Assay: NCI In Vivo Anticancer Drug Screen. Data for tumor model P388 Leukemia (intraperitoneal) in CD2F1 (CDF1) mice
Details: endpoint: median survival time, higher = longer survival
Method in brief: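 Mice carrying the transplanted tumor received test compound or vehicle. Survival was recorded in each group, and the value is the treated-group measurement divided by that of the vehicle-treated control group.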

[1] = dose: 50.0 mg/kg/injection, schedule: Q01DX005 (ip), vehicle: saline with Tween-80
[2] = dose: 100.0 mg/kg/injection, schedule: Q01DX005 (ip), vehicle: saline with Tween-80
[3] = dose: 200.0 mg/kg/injection, schedule: Q01DX005 (ip), vehicle: saline with Tween-80
[4] = dose: 50.0 mg/kg/injection, schedule: Q01DX009 (ip), vehicle: Klucel (hydroxypropylcellulose) (HPC)
[5] = dose: 50.0 mg/kg/injection, schedule: Q01DX005 (ip), vehicle: Klucel (hydroxypropylcellulose) (HPC)
[6] = dose: 100.0 mg/kg/injection, schedule: Q01DX005 (ip), vehicle: Klucel (hydroxypropylcellulose) (HPC)
[7] = dose: 25.0 mg/kg/injection, schedule: Q01DX009 (ip), vehicle: Klucel (hydroxypropylcellulose) (HPC)
[8] = dose: 50.0 mg/kg/injection, schedule: Q01DX005 (ip), vehicle: saline
[9] = dose: 100.0 mg/kg/injection, schedule: Q01DX005 (ip), vehicle: saline
[10] = dose: 200.0 mg/kg/injection, schedule: Q01DX005 (ip), vehicle: saline

Q: For `CC1OC(OC2C(OC3C(OC4CCC5(C)C(CCC6(C)C5CC=C5C7CC(C)(C)CCC7(C(=O)O)CCC56C)C4(C)C)OCC(O)C3O)OC(CO)C(O)C2O)C(O)C(O)C1O` (stereo not given), which T/C (dose: 3.75 mg/kg/injection, schedule: Q01DX005 (ip), vehicle: distilled water + Tween-80) is on record?
A: 98 % of control

Q: What about the T/C (dose: 7.5 mg/kg/injection, schedule: Q01DX005 (ip), vehicle: distilled water + Tween-80) of the same compound?
A: 100 % of control

Q: `CNc1ccc(CN2CCCCC2)cc1C` was tested. Which T/C (dose: 0.93 mg/kg/injection, schedule: Q01DX005 (ip), vehicle: Klucel (hydroxypropylcellulose) (HPC)) did it give?
A: 100 % of control and 92 % of control

Q: And the T/C (dose: 1.87 mg/kg/injection, schedule: Q01DX005 (ip), vehicle: Klucel (hydroxypropylcellulose) (HPC))?
A: 100 % of control and 97 % of control

Q: And the T/C (dose: 3.75 mg/kg/injection, schedule: Q01DX005 (ip), vehicle: Klucel (hydroxypropylcellulose) (HPC))?
A: 99 % of control and 95 % of control and 96 % of control

Q: With `O=C(O)Cc1csc(=S)n1Cc1ccccc1` as the compound, how does the T/C [1] read?
A: 100 % of control

Q: What about the T/C [2] of the same compound?
A: 102 % of control

Q: What about the T/C [3] of the same compound?
A: 90 % of control

Q: Which results are given for `O=[N+]([O-])c1csc([N+](=O)[O-])c1`?
A: T/C (dose: 9.37 mg/kg/injection, schedule: Q01DX009 (ip), vehicle: saline with Tween-80): 109 % of control; T/C (dose: 18.75 mg/kg/injection, schedule: Q01DX009 (ip), vehicle: saline with Tween-80): 118 % of control; T/C (dose: 37.5 mg/kg/injection, schedule: Q01DX009 (ip), vehicle: saline with Tween-80): 122 % of control; T/C (dose: 75.0 mg/kg/injection, schedule: Q04DX003 (ip), vehicle: saline with Tween-80): 100 % of control; T/C (dose: 150.0 mg/kg/injection, schedule: Q04DX003 (ip), vehicle: saline with Tween-80): 100 % of control; T/C (dose: 300.0 mg/kg/injection, schedule: Q04DX003 (ip), vehicle: saline with Tween-80): 109 % of control

Q: What does the source list for `COc1cc(NS(C)(=O)=O)ccc1Nc1c2ccc([N+](=O)[O-])cc2nc2c(C)c(C)ccc12`?
A: T/C (dose: 0.04 mg/kg/injection, schedule: Q01DX009 (ip), vehicle: saline with Tween-80): 120 % of control; T/C (dose: 0.07 mg/kg/injection, schedule: Q01DX009 (ip), vehicle: saline with Tween-80): 120 % of control; T/C (dose: 1.13 mg/kg/injection, schedule: Q01DX009 (ip), vehicle: saline with Tween-80): 157 % of control; T/C (dose: 6.25 mg/kg/injection, schedule: Q01DX009 (ip), vehicle: saline with Tween-80): 254 % of control; T/C (dose: 8.8 mg/kg/injection, schedule: Q04DX003 (ip), vehicle: saline with Tween-80): 218 % of control; T/C (dose: 12.5 mg/kg/injection, schedule: Q01DX009 (ip), vehicle: saline with Tween-80): 291 % of control; T/C (dose: 13.2 mg/kg/injection, schedule: Q04DX003 (ip), vehicle: saline with Tween-80): 209 % of control; T/C (dose: 20.0 mg/kg/injection, schedule: Q04DX003 (ip), vehicle: saline with Tween-80): 231 % of control; T/C (dose: 30.0 mg/kg/injection, schedule: Q04DX003 (ip), vehicle: saline with Tween-80): 263 % of control

Q: With `Cc1c(Br)c(C)[n+]([O-])n1O` as the compound, how does the T/C (dose: 60.0 mg/kg/injection, schedule: Q01DX005 (ip), vehicle: Klucel (hydroxypropylcellulose) (HPC)) read?
A: 99 % of control

Q: What about the T/C (dose: 120.0 mg/kg/injection, schedule: Q01DX005 (ip), vehicle: Klucel (hydroxypropylcellulose) (HPC)) of the same compound?
A: 95 % of control

Q: For `Cc1c(N2CCCC2)cc2c(c1-n1cccc1)C(C)(C)CC2(C)C`, which T/C [4] is on record?
A: 102 % of control

Q: And the T/C (dose: 100.0 mg/kg/injection, schedule: Q01DX009 (ip), vehicle: Klucel (hydroxypropylcellulose) (HPC))?
A: 96 % of control

Q: And the T/C (dose: 200.0 mg/kg/injection, schedule: Q01DX009 (ip), vehicle: Klucel (hydroxypropylcellulose) (HPC))?
A: 96 % of control

Q: How did the T/C (dose: 0.25 mg/kg/injection, schedule: Q01DX009 (ip), vehicle: saline) turn out when `CC(C)(C)C1CCS(=O)(=O)CC1.[Cl][Hg][Cl]` was run?
A: 109 % of control

Q: What about the T/C (dose: 0.5 mg/kg/injection, schedule: Q01DX009 (ip), vehicle: saline) of the same compound?
A: 95 % of control

Q: And the T/C (dose: 1.0 mg/kg/injection, schedule: Q01DX009 (ip), vehicle: saline)?
A: 90 % of control

Q: What does the source list for `Cc1ccc(S(=O)(=O)CC(=O)CC(=O)C(=O)Nc2ccc(Cl)cc2Cl)cc1`?
A: T/C (dose: 60.0 mg/kg/injection, schedule: Q01DX005 (ip), vehicle: saline with Tween-80): 100 % of control; T/C (dose: 120.0 mg/kg/injection, schedule: Q01DX005 (ip), vehicle: saline with Tween-80): 100 % of control; T/C (dose: 240.0 mg/kg/injection, schedule: Q01DX005 (ip), vehicle: saline with Tween-80): 100 % of control

Q: With `CCC(c1ccc(OC)cc1)C(NCC(=O)N/N=C1/C=C2CC[C@H]3[C@@H]4CC[C@H](O)[C@@]4(C)CC[C@@H]3[C@@]2(C)CC1)c1ccc(OC)cc1` (stereo not given in full) as the compound, how does the T/C (dose: 100.0 mg/kg/injection, schedule: Q01DX001 (ip), vehicle: saline with Tween-80) read?
A: 100 % of control

Q: And the T/C (dose: 200.0 mg/kg/injection, schedule: Q01DX001 (ip), vehicle: saline with Tween-80)?
A: 110 % of control

Q: And the T/C (dose: 400.0 mg/kg/injection, schedule: Q01DX001 (ip), vehicle: saline with Tween-80)?
A: 107 % of control

Q: For `COc1cccc2c1C(=O)c1c(O)c3c(c(O)c1C2=O)C[C@@](O)(C(=O)CSc1ccccc1)C[C@@H]3OC1CC(N)C(O)C(C)O1` (stereo not given in full), which T/C (dose: 0.78 mg/kg/injection, schedule: Q01DX009 (ip), vehicle: water) is on record?
A: 122 % of control

Q: And the T/C (dose: 12.5 mg/kg/injection, schedule: Q01DX009 (ip), vehicle: water)?
A: 99 % of control and 91 % of control

Q: With `COCOc1cccc2c1CCC2` as the compound, how does the T/C [1] read?
A: 100 % of control

Q: And the T/C [2]?
A: 100 % of control

Q: What about the T/C [3] of the same compound?
A: 100 % of control

Q: `COc1cc(C[C@H]2[C@H]([C@H](O)c3ccc4c(c3)OCO4)C(=O)O[C@@H]2CO)cc(OC)c1OC` was tested. Which T/C (dose: 5.0 mg/kg/injection, schedule: Q04DX002 (ip), vehicle: saline with Tween-80) did it give?
A: 105 % of control

Q: What about the T/C (dose: 10.0 mg/kg/injection, schedule: Q04DX002 (ip), vehicle: saline with Tween-80) of the same compound?
A: 102 % of control

Q: And the T/C (dose: 20.0 mg/kg/injection, schedule: Q04DX002 (ip), vehicle: saline with Tween-80)?
A: 102 % of control

Q: What does the source list for `COC1OC(COS(=O)(=O)c2ccc(C)cc2)C2OC(C)(C)OC12` (stereo not given)?
A: T/C [5]: 95 % of control; T/C [6]: 100 % of control

Q: How did the T/C (dose: 3.13 mg/kg/injection, schedule: Q01DX009 (ip), vehicle: Klucel (hydroxypropylcellulose) (HPC)) turn out when `COc1ccc(C(=O)/C=C/c2ccc3cc(OC)c(OC)cc3c2)cc1OC` was run?
A: 103 % of control

Q: What about the T/C (dose: 6.25 mg/kg/injection, schedule: Q01DX009 (ip), vehicle: Klucel (hydroxypropylcellulose) (HPC)) of the same compound?
A: 100 % of control

Q: And the T/C (dose: 12.5 mg/kg/injection, schedule: Q01DX009 (ip), vehicle: Klucel (hydroxypropylcellulose) (HPC))?
A: 106 % of control

Q: What about the T/C [7] of the same compound?
A: 106 % of control

Q: And the T/C [4]?
A: 98 % of control

Q: How did the T/C [7] turn out when `COc1cc(C(=O)c2cc3c(cc2C)OCO3)cc(OC)c1OC` was run?
A: 109 % of control

Q: And the T/C [4]?
A: 113 % of control

Q: With `COC(CNC(=O)Nc1cccnc1)[CH2][Hg][Cl]` (stereo not given) as the compound, how does the T/C (dose: 25.0 mg/kg/injection, schedule: Q04DX003 (ip), vehicle: saline with Tween-80) read?
A: 91 % of control

Q: And the T/C (dose: 50.0 mg/kg/injection, schedule: Q04DX003 (ip), vehicle: saline with Tween-80)?
A: 116 % of control

Q: How did the T/C (dose: 50.0 mg/kg/injection, schedule: Q01DX009 (ip), vehicle: saline with Tween-80) turn out when `CC(C)(Oc1ccc(C(=O)c2ccc(Cl)c(Cl)c2)cc1)C(=O)O` was run?
A: 94 % of control

Q: What about the T/C (dose: 100.0 mg/kg/injection, schedule: Q01DX009 (ip), vehicle: saline with Tween-80) of the same compound?
A: 102 % of control

Q: What about the T/C (dose: 200.0 mg/kg/injection, schedule: Q01DX009 (ip), vehicle: saline with Tween-80) of the same compound?
A: 107 % of control

Q: How did the T/C [5] turn out when `[B-]([C+]1CCCCC1)N1C=CC=CC1` was run?
A: 100 % of control

Q: What about the T/C [6] of the same compound?
A: 98 % of control

Q: And the T/C (dose: 200.0 mg/kg/injection, schedule: Q01DX005 (ip), vehicle: Klucel (hydroxypropylcellulose) (HPC))?
A: 97 % of control

Q: What does the source list for `C=CC(=O)OCCN(CCCC)CCCC`?
A: T/C [8]: 103 % of control; T/C [9]: 95 % of control; T/C [10]: 97 % of control

Q: How did the T/C [8] turn out when `CC1CNCC(C)N1Cc1ccccc1` (stereo not given) was run?
A: 108 % of control

Q: And the T/C [9]?
A: 99 % of control

Q: Which results are given for `NNc1nn2cnnc2c2ccccc12`?
A: T/C (dose: 6.25 mg/kg/injection, schedule: Q04DX002 (ip), vehicle: saline): 100 % of control and 96 % of control; T/C (dose: 12.5 mg/kg/injection, schedule: Q04DX002 (ip), vehicle: saline): 98 % of control and 99 % of control and 96 % of control; T/C (dose: 25.0 mg/kg/injection, schedule: Q04DX002 (ip), vehicle: saline): 100 % of control and 122 % of control and 97 % of control; T/C (dose: 50.0 mg/kg/injection, schedule: Q04DX002 (ip), vehicle: saline): 101 % of control and 104 % of control and 94 % of control; T/C (dose: 400.0 mg/kg/injection, schedule: Q04DX002 (ip), vehicle: saline): 88 % of control

Q: For `CC(=O)c1cc(CN(C)C)c(O)c(CN(C)C)c1`, which T/C [8] is on record?
A: 101 % of control

Q: What about the T/C [9] of the same compound?
A: 99 % of control

Q: And the T/C [10]?
A: 99 % of control
